Assay: Solubility of flame retardant in styrene
Type: physicochemical

Solubility (at 40° C.) [wt %]	Compound	Solubility (at 25° C.) [wt %]
	CN1C(=O)C2CC(Br)C(Br)CC2C1=O (stereo not drawn) [III]	>5
>1	O=C1NC(=O)C2CC(Br)C(Br)CC12 (stereo not drawn) [II]	
	O=C1C2C3CC(C(Br)C3Br)C2C(=O)N1CCN1C(=O)C2C3CC(C(Br)C3Br)C2C1=O (stereo not drawn) [BN-451, reference compound]	<0.1

— patent US20080096990A1, “Flame Retardant Polystyrene Foam Compositions” (priority 2004, published 2008)
